Measurements taken from ChEMBL document CHEMBL4043136, “Chiral-pool synthesis of 1,2,4-trisubstituted 1,4-diazepanes as novel σ1 receptor ligands” (Bioorg Med Chem, 2017).
Calls of active or inactive are those of the source. The rule behind the calls is not given here.

Experiments:
Homo sapiens [1] = species: Homo sapiens; assay: Displacement of [3H]-CGP-54626 from […] GABAB receptor (unknown origin) at 1 uM
[2] = target: Muscarinic acetylcholine receptor M3 (Homo sapiens) (UniProt P20309); assay: Displacement of [3H]-N-methylscopolamine from muscarinic M3 receptor (unknown origin) at 1 uM
[3] = target: Gastrin-releasing peptide receptor (Homo sapiens) (UniProt P30550); assay: Displacement of [125I]-(Tyr4)-bombesin from bombesin BB2 receptor (unknown origin) at 1 uM
CYP2C9 = CYP2C9 (Homo sapiens, UniProt P11712); assay: Inhibition on CYP2C9 (unknown origin) at 1 uM; type: ADME
[4] = target: Estrogen receptor (Homo sapiens) (UniProt P03372); assay: Displacement of [3H]-estradiol from estrogen ERalpha receptor (unknown origin) at 1 uM
[5] = target: Platelet-activating factor receptor (Homo sapiens) (UniProt P25105); assay: Displacement of [3H]-PAF from platelet activating factor receptor (unknown origin) at 1 uM
[6] = target: Alpha-1D adrenergic receptor (Homo sapiens) (UniProt P25100); assay: Displacement of [3H]-prazosin from adrenergic alpha1D receptor (unknown origin) at 1 uM
[7] = target: Histamine H1 receptor (Homo sapiens) (UniProt P35367); assay: Displacement of [3H]-Pyrilamine from histamine H1 receptor (unknown origin) at 1 uM
Sequence of Histamine H1 receptor (Homo sapiens) (P35367 whole entry): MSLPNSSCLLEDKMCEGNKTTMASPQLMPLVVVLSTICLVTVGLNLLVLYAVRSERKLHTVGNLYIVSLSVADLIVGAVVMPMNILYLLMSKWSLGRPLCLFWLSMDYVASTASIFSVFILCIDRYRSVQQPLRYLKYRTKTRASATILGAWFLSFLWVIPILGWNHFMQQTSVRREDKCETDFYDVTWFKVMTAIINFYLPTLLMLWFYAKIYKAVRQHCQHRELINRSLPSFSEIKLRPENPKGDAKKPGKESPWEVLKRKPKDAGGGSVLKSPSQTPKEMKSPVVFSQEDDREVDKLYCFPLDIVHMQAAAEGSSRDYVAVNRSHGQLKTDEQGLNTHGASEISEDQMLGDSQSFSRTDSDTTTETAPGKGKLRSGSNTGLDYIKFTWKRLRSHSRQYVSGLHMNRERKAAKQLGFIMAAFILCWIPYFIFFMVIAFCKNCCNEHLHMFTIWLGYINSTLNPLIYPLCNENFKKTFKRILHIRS

[8] = Metabolic stability in human microsomes assessed as amount of parent compound remaining after 5 mins; type: ADME, Microsome; details: read-out: Stability
[9] = target: Substance-P receptor (Homo sapiens) (UniProt P25103); assay: Displacement of [3H]-SR-140333 from tachykinin NK1 receptor (unknown origin) at 1 uM
[10] = Metabolic stability in mouse microsomes assessed as amount of parent compound remaining after 5 mins; type: ADME, Microsome; details: read-out: Stability
[11] = target: 5-hydroxytryptamine receptor 3A (Homo sapiens) (UniProt P46098); assay: Displacement of [3H]-GR-65630 from 5-HT3 receptor (unknown origin) at 1 uM
[12] = target: Adenosine receptor A1 (Homo sapiens) (UniProt P30542); assay: Displacement of [3H]-DPCPX from adenosine A1 receptor (unknown origin) at 1 uM
Sequence of Adenosine receptor A1 (Homo sapiens) (P30542 whole entry): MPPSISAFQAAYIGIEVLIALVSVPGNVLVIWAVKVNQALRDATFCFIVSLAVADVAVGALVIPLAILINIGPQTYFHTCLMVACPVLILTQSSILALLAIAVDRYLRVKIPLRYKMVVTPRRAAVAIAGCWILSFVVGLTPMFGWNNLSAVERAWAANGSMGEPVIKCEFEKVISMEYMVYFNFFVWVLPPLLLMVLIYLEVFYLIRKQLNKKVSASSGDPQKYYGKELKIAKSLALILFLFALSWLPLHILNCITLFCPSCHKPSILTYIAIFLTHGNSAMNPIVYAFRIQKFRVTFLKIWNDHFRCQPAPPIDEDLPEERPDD

[13] = target: C-C chemokine receptor type 5 (Homo sapiens) (UniProt P51681); assay: Displacement of [125I]-MIP-1beta from CCR5 receptor (unknown origin) at 1 uM
Sequence of C-C chemokine receptor type 5 (Homo sapiens) (P51681 whole entry, looked up): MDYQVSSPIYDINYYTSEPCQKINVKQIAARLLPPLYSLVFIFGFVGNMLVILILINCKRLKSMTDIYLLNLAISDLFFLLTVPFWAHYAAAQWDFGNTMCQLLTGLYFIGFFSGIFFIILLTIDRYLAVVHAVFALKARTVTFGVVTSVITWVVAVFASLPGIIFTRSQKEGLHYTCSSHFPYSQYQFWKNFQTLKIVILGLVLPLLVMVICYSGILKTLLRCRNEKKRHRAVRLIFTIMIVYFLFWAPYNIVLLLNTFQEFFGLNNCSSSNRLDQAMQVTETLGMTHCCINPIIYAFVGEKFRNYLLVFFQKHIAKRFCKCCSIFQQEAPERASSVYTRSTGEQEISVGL

Mus musculus [14] = assay: Toxicity in mouse assessed as diarrhea at 100 mg/kg, ip by Irwin test; type: organism-based; details: in vivo
[15] = target: Metabotropic glutamate receptor 5 (Homo sapiens) (UniProt P41594); assay: Displacement of [3H]-quisqulic acid from metabotropic glutamate receptor 5 (unknown origin) at 1 uM
Sequence of Metabotropic glutamate receptor 5 (Homo sapiens) (P41594 21-1212 limits assumed): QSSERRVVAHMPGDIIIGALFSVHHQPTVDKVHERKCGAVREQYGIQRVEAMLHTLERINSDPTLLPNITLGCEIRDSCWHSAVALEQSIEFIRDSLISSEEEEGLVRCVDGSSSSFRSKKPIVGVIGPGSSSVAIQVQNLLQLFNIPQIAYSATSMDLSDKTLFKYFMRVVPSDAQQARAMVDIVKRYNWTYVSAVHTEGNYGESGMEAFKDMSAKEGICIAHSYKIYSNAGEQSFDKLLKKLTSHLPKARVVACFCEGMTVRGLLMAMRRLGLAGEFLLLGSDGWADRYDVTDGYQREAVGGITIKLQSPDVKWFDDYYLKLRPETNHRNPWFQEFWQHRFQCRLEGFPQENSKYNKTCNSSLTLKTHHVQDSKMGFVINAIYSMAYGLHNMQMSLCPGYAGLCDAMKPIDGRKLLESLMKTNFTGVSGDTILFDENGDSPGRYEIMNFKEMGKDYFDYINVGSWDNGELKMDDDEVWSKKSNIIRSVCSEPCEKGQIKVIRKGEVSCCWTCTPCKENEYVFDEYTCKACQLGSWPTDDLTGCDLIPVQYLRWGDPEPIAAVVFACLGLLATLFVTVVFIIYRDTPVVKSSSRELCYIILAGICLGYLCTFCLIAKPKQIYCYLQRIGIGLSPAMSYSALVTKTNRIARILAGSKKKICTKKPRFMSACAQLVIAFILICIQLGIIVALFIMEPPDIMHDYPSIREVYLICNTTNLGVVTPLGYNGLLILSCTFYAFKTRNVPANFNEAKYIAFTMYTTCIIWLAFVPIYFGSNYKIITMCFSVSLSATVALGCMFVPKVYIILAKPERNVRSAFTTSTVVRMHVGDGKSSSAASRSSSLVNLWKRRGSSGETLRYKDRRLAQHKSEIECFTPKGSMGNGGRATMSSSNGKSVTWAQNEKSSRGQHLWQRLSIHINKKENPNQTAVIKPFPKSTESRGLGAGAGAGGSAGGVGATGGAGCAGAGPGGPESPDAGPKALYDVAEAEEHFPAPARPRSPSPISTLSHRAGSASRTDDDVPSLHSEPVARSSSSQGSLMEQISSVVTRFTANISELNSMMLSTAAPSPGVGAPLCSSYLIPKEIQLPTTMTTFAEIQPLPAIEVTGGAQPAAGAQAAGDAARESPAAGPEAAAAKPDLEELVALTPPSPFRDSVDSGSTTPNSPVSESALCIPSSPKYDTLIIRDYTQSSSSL

CYP2D6 = CYP2D6 (Homo sapiens, UniProt P10635); assay: Inhibition on CYP2D6 (unknown origin) at 1 uM; type: ADME
Sequence of CYP2D6 (P10635 whole entry): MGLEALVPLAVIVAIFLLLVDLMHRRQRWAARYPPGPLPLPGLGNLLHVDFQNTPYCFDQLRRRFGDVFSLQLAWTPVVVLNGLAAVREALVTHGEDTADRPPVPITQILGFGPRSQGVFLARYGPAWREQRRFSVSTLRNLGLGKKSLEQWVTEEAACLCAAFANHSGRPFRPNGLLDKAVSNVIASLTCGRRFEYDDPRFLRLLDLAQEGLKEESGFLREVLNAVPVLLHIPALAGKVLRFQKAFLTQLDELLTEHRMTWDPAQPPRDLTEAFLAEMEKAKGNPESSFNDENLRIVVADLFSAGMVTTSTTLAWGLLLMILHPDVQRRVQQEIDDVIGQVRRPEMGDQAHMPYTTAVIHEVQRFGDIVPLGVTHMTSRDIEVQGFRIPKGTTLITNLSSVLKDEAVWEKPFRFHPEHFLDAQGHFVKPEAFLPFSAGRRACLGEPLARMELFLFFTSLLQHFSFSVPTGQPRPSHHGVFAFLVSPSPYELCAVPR

[16] = target: D(3) dopamine receptor (Homo sapiens) (UniProt P35462); assay: Displacement of [3H]-sp iperone from dopamine D3 receptor (unknown origin) at 1 uM
[17] = target: Adenosine receptor A2a (Homo sapiens) (UniProt P29274); assay: Displacement of [3H]-CGS21680 from adenosine A2A receptor (unknown origin) at 1 uM
[18] = target: Kappa-type opioid receptor (Homo sapiens) (UniProt P41145); assay: Displacement of [3H]-d iprenorphine from kappa opioid receptor (unknown origin) at 1 uM
Sequence of Kappa-type opioid receptor (Homo sapiens) (P41145 whole entry): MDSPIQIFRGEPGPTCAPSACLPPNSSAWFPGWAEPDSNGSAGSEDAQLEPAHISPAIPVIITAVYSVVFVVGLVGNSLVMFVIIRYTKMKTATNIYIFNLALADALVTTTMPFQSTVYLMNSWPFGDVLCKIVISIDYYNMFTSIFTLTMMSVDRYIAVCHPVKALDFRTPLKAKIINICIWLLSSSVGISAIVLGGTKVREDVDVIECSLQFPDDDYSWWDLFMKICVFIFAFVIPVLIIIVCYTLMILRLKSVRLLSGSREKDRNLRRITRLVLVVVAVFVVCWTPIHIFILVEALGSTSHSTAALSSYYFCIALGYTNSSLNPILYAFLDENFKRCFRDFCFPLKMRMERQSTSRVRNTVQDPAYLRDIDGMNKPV

Homo sapiens [19] = species: Homo sapiens; assay: Displacement of [3H]-alpha-5-methylene-ATP from purinergic P2x receptor (unknown origin) at 1 uM
[20] = target: Sigma non-opioid intracellular receptor 1 (Cavia porcellus) (UniProt Q60492); assay: Agonist activity at sigma1 receptor assessed as potentiation of electrically stimulated contractions of the guinea pig vas deferens at 30 uM relative to (S)-3-PPP
Sequence of Sigma non-opioid intracellular receptor 1 (Cavia porcellus) (Q60492 whole entry): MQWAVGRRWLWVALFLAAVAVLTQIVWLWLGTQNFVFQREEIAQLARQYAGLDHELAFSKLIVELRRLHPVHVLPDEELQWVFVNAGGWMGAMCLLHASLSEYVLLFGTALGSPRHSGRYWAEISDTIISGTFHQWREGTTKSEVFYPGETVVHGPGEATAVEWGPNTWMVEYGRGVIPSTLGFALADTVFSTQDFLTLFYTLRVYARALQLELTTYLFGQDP

[21] = target: Sigma non-opioid intracellular receptor 1 (Cavia porcellus) (UniProt Q60492); assay: Agonist activity at sigma1 receptor assessed as potentiation of electrically stimulated contractions of the guinea pig vas deferens relative to (S)-3-PPP
Mus musculus [22] = assay: Toxicity in mouse at 1 mg/kg, ip by Irwin test; type: organism-based; details: in vivo
[23] = target: B2 bradykinin receptor (Homo sapiens) (UniProt P30411); assay: Displacement of [3H]-bradykinin from bradykinin B2 receptor (unknown origin) at 1 uM
[24] = target: C-X-C chemokine receptor type 2 (Homo sapiens) (UniProt P25025); assay: Displacement of [125I]-IL-8 from CXCR2 receptor (unknown origin) at 1 uM
Sequence of C-X-C chemokine receptor type 2 (Homo sapiens) (P25025 whole entry): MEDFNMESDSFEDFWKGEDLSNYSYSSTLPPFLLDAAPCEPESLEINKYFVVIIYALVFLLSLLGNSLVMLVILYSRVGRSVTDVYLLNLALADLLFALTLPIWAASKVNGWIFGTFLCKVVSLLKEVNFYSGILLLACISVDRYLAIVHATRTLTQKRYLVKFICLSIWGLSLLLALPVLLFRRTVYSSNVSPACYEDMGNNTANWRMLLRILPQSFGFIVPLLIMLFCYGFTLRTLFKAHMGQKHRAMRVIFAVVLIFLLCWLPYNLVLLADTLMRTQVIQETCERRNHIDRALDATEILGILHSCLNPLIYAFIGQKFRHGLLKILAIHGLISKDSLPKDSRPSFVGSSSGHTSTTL

[25] = target: Adenosine receptor A3 (Homo sapiens) (UniProt P0DMS8); assay: Displacement of [125I]-AB-MECA from adenosine A3 receptor (unknown origin) at 1 uM
Sequence of Adenosine receptor A3 (Homo sapiens) (P0DMS8 whole entry, looked up): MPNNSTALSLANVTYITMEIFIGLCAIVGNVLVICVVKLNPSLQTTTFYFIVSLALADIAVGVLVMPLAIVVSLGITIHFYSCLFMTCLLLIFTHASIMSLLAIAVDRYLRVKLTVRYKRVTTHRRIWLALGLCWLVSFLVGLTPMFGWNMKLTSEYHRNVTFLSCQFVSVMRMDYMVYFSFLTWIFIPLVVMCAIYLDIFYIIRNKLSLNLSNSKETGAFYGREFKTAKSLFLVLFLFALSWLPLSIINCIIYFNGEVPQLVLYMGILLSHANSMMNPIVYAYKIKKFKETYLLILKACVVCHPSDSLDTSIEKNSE

[26] = target: Mu-type opioid receptor (Homo sapiens) (UniProt P35372); assay: Displacement of [3H]-d iprenorphine from mu opioid receptor (unknown origin) at 1 uM
Sequence of Mu-type opioid receptor (Homo sapiens) (P35372 whole entry): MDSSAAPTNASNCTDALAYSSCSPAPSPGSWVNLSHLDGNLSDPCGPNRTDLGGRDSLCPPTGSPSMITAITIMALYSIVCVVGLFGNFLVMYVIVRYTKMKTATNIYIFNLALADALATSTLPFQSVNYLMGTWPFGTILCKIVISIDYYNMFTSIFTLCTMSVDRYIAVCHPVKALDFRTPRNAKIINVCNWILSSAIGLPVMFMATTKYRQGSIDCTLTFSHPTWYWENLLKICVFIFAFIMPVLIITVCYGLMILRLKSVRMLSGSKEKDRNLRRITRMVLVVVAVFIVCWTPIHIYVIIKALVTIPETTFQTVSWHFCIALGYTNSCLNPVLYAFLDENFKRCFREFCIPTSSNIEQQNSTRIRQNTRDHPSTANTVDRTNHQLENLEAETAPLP

[27] = target: Beta-2 adrenergic receptor (Homo sapiens) (UniProt P07550); assay: Displacement of [3H]-CGP-12177 from adrenergic beta2 receptor (unknown origin) at 1 uM
CYP3A4 = CYP3A4 (Homo sapiens, UniProt P08684); assay: Inhibition on CYP3A4 (unknown origin) at 1 uM; type: ADME
[28] = target: 5-hydroxytryptamine receptor 1A (Homo sapiens) (UniProt P08908); assay: Displacement of [3H]-8-OH-DPAT from 5-HT1A receptor (unknown origin) at 1 uM
Sequence of 5-hydroxytryptamine receptor 1A (Homo sapiens) (P08908 whole entry): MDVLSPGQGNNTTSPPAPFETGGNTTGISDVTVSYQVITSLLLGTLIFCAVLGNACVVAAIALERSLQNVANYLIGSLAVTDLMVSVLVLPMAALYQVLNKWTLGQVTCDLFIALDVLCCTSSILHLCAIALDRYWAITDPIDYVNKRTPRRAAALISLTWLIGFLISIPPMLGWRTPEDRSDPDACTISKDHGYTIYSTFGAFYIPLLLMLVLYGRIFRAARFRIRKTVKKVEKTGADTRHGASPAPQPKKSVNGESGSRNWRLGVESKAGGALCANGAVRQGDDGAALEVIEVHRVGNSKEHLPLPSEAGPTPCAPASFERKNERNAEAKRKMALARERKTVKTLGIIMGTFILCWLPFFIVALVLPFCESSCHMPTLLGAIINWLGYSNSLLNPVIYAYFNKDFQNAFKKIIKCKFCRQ

Homo sapiens [29] = species: Homo sapiens; assay: Displacement of [3H]-flunitrazepam from […] GABAA receptor (unknown origin) at 1 uM
[30] = target: Alpha-2A adrenergic receptor (Homo sapiens) (UniProt P08913); assay: Displacement of [3H]-MK-912 from adrenergic alpha2A receptor (unknown origin) at 1 uM

inhibition (Homo sapiens [1]): inactive
inhibition [2]: inactive
inhibition [3]: inactive
inhibition at 1 µM (CYP2C9): 0%
inhibition [4]: inactive
inhibition [5]: inactive
inhibition [6]: inactive
inhibition [7]: inactive
remaining at 5 min [8]: < 50%
inhibition [9]: inactive
remaining at 5 min [10]: < 50%
inhibition [11]: inactive
inhibition [12]: inactive
inhibition [13]: inactive
inhibition [15]: inactive
inhibition at 1 µM (CYP2D6): 60%
inhibition [16]: inactive
inhibition [17]: inactive
inhibition [18]: inactive
inhibition (Homo sapiens [19]): inactive
Activity [20]: 29%
Activity [21]: Dose-dependent effect
inhibition [23]: inactive
inhibition [24]: inactive
inhibition [25]: inactive
inhibition [26]: inactive
inhibition [27]: inactive
inhibition at 1 µM (CYP3A4): 7%
inhibition [28]: inactive
inhibition (Homo sapiens [29]): inactive
inhibition [30]: inactive
Compound: COc1ccc(CN2CCCN(Cc3ccccc3)[C@@H](C)C2)cc1
Activity (Mus musculus [14]): Toxic
Activity (Mus musculus [22]): Non-Toxic
